Source: patent publication US7435733B2, “Mineralocorticoid receptor modulator compounds and methods, and pharmaceutical compositions containing these compounds” (Ligand Pharmaceuticals, Inc., priority 2004, dated 2008)

Target: T1, human mineralocorticoid receptor protein (MR) (Homo sapiens, UniProt P08235)
T1 construct: made in house; host or cells: Spodoptera frugiperda Sf21 insect cells (baculovirus)
T1 sequence (P08235 1-984): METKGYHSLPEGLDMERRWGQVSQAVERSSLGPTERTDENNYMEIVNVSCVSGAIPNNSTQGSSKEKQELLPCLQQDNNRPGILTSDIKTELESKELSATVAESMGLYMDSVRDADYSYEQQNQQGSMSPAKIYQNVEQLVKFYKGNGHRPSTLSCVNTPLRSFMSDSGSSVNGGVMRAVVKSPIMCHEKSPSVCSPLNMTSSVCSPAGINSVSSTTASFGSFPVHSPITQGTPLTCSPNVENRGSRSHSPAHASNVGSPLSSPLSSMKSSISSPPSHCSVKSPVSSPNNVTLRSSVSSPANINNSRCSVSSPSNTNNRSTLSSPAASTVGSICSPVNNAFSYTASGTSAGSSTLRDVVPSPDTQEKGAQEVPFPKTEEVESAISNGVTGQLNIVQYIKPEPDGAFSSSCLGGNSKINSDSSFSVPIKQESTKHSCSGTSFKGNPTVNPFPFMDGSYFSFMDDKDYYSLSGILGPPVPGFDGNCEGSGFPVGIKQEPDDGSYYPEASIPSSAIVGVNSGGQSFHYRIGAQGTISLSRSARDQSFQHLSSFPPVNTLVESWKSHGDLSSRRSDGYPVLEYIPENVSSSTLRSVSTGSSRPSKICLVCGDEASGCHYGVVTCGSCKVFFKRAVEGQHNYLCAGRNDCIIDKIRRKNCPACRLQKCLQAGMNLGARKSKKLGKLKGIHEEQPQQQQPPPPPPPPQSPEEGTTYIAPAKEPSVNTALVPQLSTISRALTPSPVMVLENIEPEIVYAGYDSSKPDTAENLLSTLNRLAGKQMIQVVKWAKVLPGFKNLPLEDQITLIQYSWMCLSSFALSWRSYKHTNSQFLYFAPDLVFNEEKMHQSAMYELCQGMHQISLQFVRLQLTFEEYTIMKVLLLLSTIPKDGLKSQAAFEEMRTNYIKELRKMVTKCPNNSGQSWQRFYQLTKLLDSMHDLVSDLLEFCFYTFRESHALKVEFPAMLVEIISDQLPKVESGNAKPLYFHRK
Assay: Mineralocorticoid receptor binding assay ([3H]aldosterone displacement, MR lysate)
Conditions: baculovirus-expressed MR lysate from Sf21 cells; 2-4 nM [3H]aldosterone; 16 hours at 4° C.; Cheng-Prusoff from IC50
Procedure: A baculovirus expression plasmid comprising cDNA encoding the human mineralocorticoid receptor protein (MR) was prepared using standard techniques. See e.g. E. A. Allegretto et. al. 268 J. Biol. Chem., 26625 (1993); G. Srinivasan and B. Thompson, 4 Mol. Endo., 209 (1990); and D. R. O'Reilly et. al., in “Baculovirus Expression Vectors”, D. R. O'Reilly et. al., eds., W.H. Freeman, New York, N.Y., pp. 139-179 (1992). That expression plasmid was co-transfected together with wild type Autographa californica multiple nuclear polyhedrosis virus DNA into Spodopter frugiperda-21 (Sf-21) cells to generate recombinant virus comprising MR cDNA. See e.g. O'Reilly, D. R., Miller, L. K., Luckow, V. A., Regulation of expression of a baculovirus ecdysteroid UDP glucosyltransferase gene. “Baculovirus Expression Vectors.” WH Freeman, N.Y., 139-179 (1992). […]
After incubation, 200 μl of 6.25% hydroxylapatite in assay buffer was added to each assay sample to precipitate the protein. […] Radioactivity in counts per minute (CPM) of each washed pellet was determined by liquid scintillation counter (MicroBeta™, Wallach).
Specific binding for a particular sample was calculated using the equation: (Sample CPM)−(Average Non-specific CPM) Average Non-specific CPM was defined as the amount of radioactivity from samples comprising an excess (i.e. 1000 nM) of unlabeled aldosterone. […]

Ki | Structure (SMILES)
335 nM | O=C1Nc2ccc(-c3cccc(C(F)(F)F)c3)c3c2C(CCC3)O1 (racemic) [Compound 101, (±)-7,8,9,9a-Tetrahydro-6-[(3-trifluoromethyl)phenyl]-3H-naphtho[1,8-de][1,3]oxazin-2-one]
650 nM | N#Cc1cccc(-c2ccc3c4c2CCCC4OC(=O)N3)c1 (racemic) [Compound 102, (±)-7,8,9,9a-Tetrahydro-6-(3-cyanophenyl)-3H-naphtho[1,8-de][1,3]oxazin-2-one]
